These results are taken from patent US12427200B2 (priority 2019, dated 2025).

Structures are written as SMILES. Several values for one entry are separate records, joined by “and”; a condition that tells them apart may be missing. Identical values can stand only once.

Assay [1] relates to A/Perth/261/2009 (H1N1), H275Y mutation. Conditions: mouse, in vivo.
For assay [2], the system named is H3N2 E119V (A/Texas/12/2007). It is filed as cell-based, Influenza A virus.
For assay [3], the system named is A/Perth/261/2009 (H1N1) H275Y. More on the design: species or system BALB/c mice. Conditions: mouse, in vivo.
For assay [4], the system named is A/Texas/23/2012 (H1N1) H275Y. Also on record: species or system BALB/c mice. Conditions: mouse, in vivo.
Assay [5] has as its system NA variants H275Y (H1N1), E119V and R292K (H3N2), R152K (B). As to the kind of experiment: biochemical. The format is biochemical, Influenza virus.
Assay [6] has as its system H1N1 H275Y (A/Texas/23/2012). It is filed as cell-based, Influenza A virus.
The target of assay [7] is NA variants H275Y (H1N1), E119V and R292K (H3N2), R152K (B) (Influenza A virus (H3N2), UniProt D1FVK3, I119V). As to the kind of experiment: biochemical. The format is biochemical.
Assay [8] concerns the target neuraminidase of live influenza A (H3N2) viruses (Influenza A virus, UniProt D1FVK3, I119V). As to the kind of experiment: biochemical.

`CCOC(=O)C1=C[C@@H](OC(CC)CC)[C@H](NC(C)=O)[C@@H](N)C1` [Oseltamivir phosphate]: in assay [1], the “Median Survival” value was 7.

Turning to `CCOC(=O)C1=C[C@@H](OC(CC)CC)[C@H](NC(C)=O)[C@@H](N)C1` [Oseltamivir, oseltamivir], the “% Survival” value in assay [1] is recorded as 20%. Moreover, the EC50 in assay [2] and in assay [6] was above 0.1 µM each time. In addition, the Survival result in assay [3] is “no survivors”. Further, the “Percent Body Weight (grams)” value in assay [3] (po) is 89% and 84% and 82% and 74% and 100% and 102% and 99%; in assay [4], 84% and 78% and 100% and 97% and 92%. Moreover, in assay [4], the “Protection from lethal challenge” value is reported as “failed to protect”. Further, the “Loss in potency against variants (up to)” value in assay [5] is above 100 fold.

As for `CC(=O)N[C@H]1[C@H]([C@H](O)[C@H](O)CO)OC(C(=O)O)=C[C@@H]1N=C(N)N` [Zanamivir, zanamivir], the concentration for a half-maximal effect (EC50) amounted to 0.074 µM in assay [2] and 0.0938 µM in assay [6]. In addition, in assay [5], the “Loss in potency against variants (up to)” value was above 10 fold. Besides, the IC50 is 0.0038 µM in assay [7] and 0.00309 µM in assay [8].

What is called EC50 is the concentration needed to bring the measured effect to its halfway point. High values mean a need for much substance, low ones an effect from little substance. By IC50 is commonly meant the concentration at which inhibition is half-maximal. Read a low IC50 as inhibition by little substance.
